Like-named read-outs stand apart in the source and are kept apart here.
Experiment: acid dissociation constant (pKa) by conventional titration

pKa | Compound | pKa (acid dissociation constant of hindered amine light stabilizer)
9 | CC1(C)CC(OC(=O)CCCCCCCCC(=O)OC2CC(C)(C)NC(C)(C)C2)CC(C)(C)N1 [Example D-3, Bis(2,2,6,6-tetramethyl-4-piperidyl) sebacate] | 
8.9 | CN1C(C)(C)CC(OC(=O)CC(C(=O)OC2CC(C)(C)N(C)C(C)(C)C2)C(CC(=O)OC2CC(C)(C)N(C)C(C)(C)C2)C(=O)OC2CC(C)(C)N(C)C(C)(C)C2)CC1(C)C [Example D-2, tetrakis(1,2,2,6,6-pentamethyl-4-piperidyl) 1,2,3,4-butanetetracarboxylate] | 
4.4 | CCCCCCCCON1C(C)(C)CC(OC(=O)CCCCCCCCC(=O)OC2CC(C)(C)N(OCCCCCCCC)C(C)(C)C2)CC1(C)C [Example D-4, Bis(1-octyloxy-2,2,6,6-tetramethylpiperidin-4-yl) sebacate] | 
 | Condensate of N,N-bis(3-aminopropyl)ethylenediamine. 2,4-bis[N-butyl-N-(1,2,2,6,6-pentamethyl-4-pi peridyl)amino]-6-chloro-1,3,5-triazine [Example D-5] | 9.2

— patent publication US20100190878A1, “POLYOLEFIN RESIN COMPOSITION AND FOAM MOLDED ARTICLE” (SUMITOMO CHEMICAL COMPANY, LIMITED, priority 2008, published 2010)
